Data: patent US9127024B2 (Intrexon Corporation, priority 2013, dated 2015)
Read-outs that look alike come from different tables or passages of the source. One block for each molecule: values may come before it.

Assays:
[1] = biological target: RheoSwitch® (CHO-K1_RS-1 cells, firefly Luciferase reporter) (Choristoneura fumiferana, UniProt O77240); assay: in vitro gene switch assay (fLUC Luciferase expression, potency screen); type: cell-based
Source text: Gene switch assays are disclosed, e.g., in U.S. Pat. Nos. 8,076,517; 7,456,315; 7,304,161; and 6,258,603.
CHO-K1 cells were stably transfected with a plasmid (RS-1, FIG. 1) coding for firefly Luciferase (fLUC) under the control of the RheoSwitch® resulting in the stable cell line CHO-K1_RS-1. A master cell bank was created containing approximately 100 vials at 5×10^6 cells per vial. One vial of CHO-K1_RS-1 was thawed and cultured for two weeks prior to each in vitro potency screening.
Twenty-four (24) hours prior to treatment with the control and test compounds the CHO-K1_RS-1 cells were seeded into white-opaque 384-well cell culture plates at 3,600 cells per well in 30 μl of culture medium. The cells were incubated in a humidified CO2 incubator at 37° C. until compound treatment.
Compounds were prepared at 25 mM in 100% dry DMSO and stored at room temperature in sealed 1 ml tubes prior to subsequent dilution and assay. On the day of cell treatment the tubes containing the control and test compounds were sorted and the ligands transferred to a 96-well polypropylene plate for subsequent dilution. The compounds were diluted in 100% dry DMSO in an 8-point, 10-fold dilution series ranging from 25 mM to 2.5 nM using the Biomek FX automated liquid handler.
The diluted compounds were then transferred to each well of 384-well polypropylene plate in quadruplicate resulting in a single 384-well plate with four replicates of each compound dilution in a different quadrant of the plate. Each well on the 384-well plate received 20 μl of diluted compound. The 384-well plates containing diluted compound and the plates containing cells in culture were loaded onto the Biomek FX and 30 nl of compound was delivered to each well containing cells using a 384-pin V&P Scientific Pin Tool. The resulting 1000-fold dilution (30 nl to 30 μl) generated a final dosing range of 25 μM to 2.5 pM in 0.1% DMSO. Two replicate plates were produced to supply a dedicated plate for the Luciferase expression assay and the APH cell viability assay.
The cells were incubated with the compound for 24 hours in a humidified CO2 incubator at 37° C. Following incubation, the cells were assayed for Luciferase expression (fLUC assay) using the Steady Glo assay from Promega. Cells were equilibrated to room temperature for 15 minutes prior to reagent addition. Thirty micro liters (30 μl) of assay reagent was added to each well of the 384-well plate using the Biomek FX. The reagent was incubated with the cells for 10-120 minutes prior to reading on a Molecular Devices Spectramax L luminometer. The assay reagents were prepared as per the manufacturer's instructions.
The Luciferase expression data was normalized to the baseline signal from cells treated with DMSO alone. The ratio of signal from treated cells to vehicle-treated cells was plotted and non-linear regress was performed using Graph Pad Prism software. EC50, (log)EC50 and Hill slope data was generated. Reporter gene expression, e.g., luciferase expression, serves as a proxy for the expression of a gene of interest. See, e.g., US 2009/0123441 and WO 2011/119773.

[2] = Pharmacokinetic (PK) study, oral gavage, plasma LC-MS/MS; details: for Clearance: oral clearance
in vivo = details: female, Sprague Dawley, rat, po, 10 mg/kg
[3] = read-out: fLUC assay EC50, 24 hours with compound, 25 μM to 2.5 pM, figure in parentheses after a value not defined
[4] = female, Sprague Dawley, rat, po, 10 mg/kg
[5] = female Sprague Dawley rats, oral gavage 10 mg/kg, Capryol 90/Triacetin (1:1, v/v)
[6] = female, Sprague Dawley, rat, po, 10 mg/kg, AUC0−t, female Sprague Dawley rats, oral gavage 10 mg/kg, Capryol 90/Triacetin (1:1, v/v)
[7] = female, Sprague Dawley, rat, po, 10 mg/kg, Cmax, female Sprague Dawley rats, oral gavage 10 mg/kg, Capryol 90/Triacetin (1:1, v/v)
[8] = female, Sprague Dawley, rat, po, 10 mg/kg, Tmax, female Sprague Dawley rats, oral gavage 10 mg/kg, Capryol 90/Triacetin (1:1, v/v)
[9] = female, Sprague Dawley, rat, po, 10 mg/kg, half-life, female Sprague Dawley rats, oral gavage 10 mg/kg, Capryol 90/Triacetin (1:1, v/v)
[10] = female Sprague Dawley rats, oral gavage 10 mg/kg, Capryol 90/Triacetin (1:1, v/v), listed as Cpd. No. 13 (Lot # 1), 10 mg/kg
[11] = female Sprague Dawley rats, oral gavage 10 mg/kg, Capryol 90/Triacetin (1:1, v/v), listed as Cpd. No. 13 (Lot # 2), 10 mg/kg
[12] = female Sprague Dawley rats, oral gavage 10 mg/kg, Capryol 90/Triacetin (1:1, v/v), listed as Cpd. No. 59 (Lot # 1), 10 mg/kg
[13] = female Sprague Dawley rats, oral gavage 10 mg/kg, Capryol 90/Triacetin (1:1, v/v), listed as Cpd. No. 59 (Lot # 2), 10 mg/kg

Sequence of RheoSwitch® (CHO-K1_RS-1 cells, firefly Luciferase reporter) (O77240 1-513): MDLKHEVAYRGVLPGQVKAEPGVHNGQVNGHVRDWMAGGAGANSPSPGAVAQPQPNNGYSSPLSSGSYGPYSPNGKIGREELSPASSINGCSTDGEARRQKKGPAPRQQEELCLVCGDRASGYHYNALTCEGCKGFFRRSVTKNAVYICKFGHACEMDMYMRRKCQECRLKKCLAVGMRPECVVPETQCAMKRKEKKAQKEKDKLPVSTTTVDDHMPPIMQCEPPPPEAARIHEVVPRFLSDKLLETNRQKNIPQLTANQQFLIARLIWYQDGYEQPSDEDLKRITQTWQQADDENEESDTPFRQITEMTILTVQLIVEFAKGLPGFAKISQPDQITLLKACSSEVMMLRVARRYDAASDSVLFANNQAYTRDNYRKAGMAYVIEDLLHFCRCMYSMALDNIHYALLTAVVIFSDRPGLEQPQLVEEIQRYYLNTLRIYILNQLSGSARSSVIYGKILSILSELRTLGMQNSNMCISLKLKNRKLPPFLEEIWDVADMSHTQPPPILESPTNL

Structure (SMILES): Cc1cc(C)cc(C(=O)N(NC(=O)c2ccc3c(c2C)OCCOB3O)C(C)(C)C)c1
- EC50 [1, 3]: 0.259 µM
- AUC(0-t) [2, 4]: 13200 ng·h/mL
- Cmax [2, 4]: 1280 ng/mL
- Tmax [2, 4]: 2.3 h
- half-life [2, 4]: 11 h
- Clearance [2, 5]: 10.2 mL/min/kg

- AUC(0-t) [2, 6]: 773 ng·h/mL
- Cmax [2, 7]: 255 ng/mL
- Tmax [2, 8]: 4 h
- half-life [2, 9]: 2.1 h
- Clearance [2, 5]: 213.1 mL/min/kg
Structure (SMILES): CCC[C@@H](N(NC(=O)c1cccc(OC)c1C)C(=O)c1cc(C)cc(C)c1)C(C)(C)C [Cpd. A, reference compound]

- AUC(0-t) [2, 6]: 888 ng·h/mL
- Cmax [2, 7]: 116 ng/mL
- Tmax [2, 8]: 3.7 h
- half-life [2, 9]: 5.4 h
- Clearance [2, 5]: 183.83 mL/min/kg
Structure (SMILES): CCC[C@@H](N(NC(=O)c1cccc(OC)c1CC)C(=O)c1cc(C)cc(C)c1)C(C)(C)C [Cpd. B, reference compound]

Structure (SMILES): Cc1cc(C)cc(C(=O)N(NC(=O)c2ccc3c(c2C)OCCO3)C(C)(C)C)c1 [Cpd. C]
- AUC(0-t) (in vivo; AUC0−t): 510 ng·h/mL
- Cmax (in vivo; Cmax): 112 ng/mL
- Tmax (in vivo; Tmax): 2.5 h

Structure (SMILES): Cc1cc(C)cc(C(=O)N(NC(=O)c2cccc(B(O)O)c2F)C(C)(C)C)c1 [Cpd. No. 5]
- EC50 [1, 3]: 0.3 µM
- AUC(0-t) [2, 6]: 18800 ng·h/mL
- Cmax [2, 7]: 1890 ng/mL
- Tmax [2, 8]: 4 h
- half-life [2, 9]: 4 h
- Clearance [2, 5]: 8.88 mL/min/kg

Structure (SMILES): CCC[C@@H](N(NC(=O)c1ccc(B(O)O)cc1F)C(=O)c1cc(C)cc(C)c1)C(C)(C)C [Cpd. No. 13, (R)-(4-(2-(3,5-dimethylbenzoyl)-2-(2,2-dimethylhexan-3-yl)hydrazinecarbonyl)-3-fluorophenyl)boronic acid]
- EC50 [1, 3]: 0.064 µM
- AUC0−t [2, 10]: 10579 ng·h/mL
- Cmax [2, 10]: 1415 ng/mL
- AUC0−t [2, 11]: 60407 ng·h/mL
- Cmax [2, 11]: 7060 ng/mL
- Tmax [2, 11]: 3.3 h
- half-life [2, 11]: 4.3 h
- Tmax [2, 8]: 2.7 h
- half-life [2, 9]: 3.2 h
- Clearance [2, 10]: 15.6 mL/min/kg
- Clearance [2, 11]: 2.82 mL/min/kg

Structure (SMILES): CCC[C@@H](N(NC(=O)c1ccc(B(O)O)c(F)c1)C(=O)c1cc(C)cc(C)c1)C(C)(C)C [Cpd. No. 22, (R)-(4-(2-(3,5-dimethylbenzoyl)-2-(2,2-dimethylhexan-3-yl)hydrazinecarbonyl)-2-fluorophenyl)boronic acid]
- EC50 [1, 3]: 0.105 µM
- AUC(0-t) [2, 6]: 25000 ng·h/mL
- Cmax [2, 7]: 2730 ng/mL
- Tmax [2, 8]: 3 h
- half-life [2, 9]: 5.6 h
- Clearance [2, 5]: 6.78 mL/min/kg

Structure (SMILES): Cc1cc(C)cc(C(=O)N(NC(=O)c2ccc3c(c2F)B(O)OC3)C(C)(C)C)c1 [Cpd. No. 58, N′-(tert-butyl)-N′-(3,5-dimethylbenzoyl)-7-fluoro-1-hydroxy-1,3-dihydrobenzo[c][1,2]oxaborole-6-carbohydrazide]
- EC50 [1, 3]: 0.64 µM
- AUC(0-t) [2, 6]: 30800 ng·h/mL
- Cmax [2, 7]: 2650 ng/mL
- Tmax [2, 8]: 3 h
- half-life [2, 9]: 15.4 h
- Clearance [2, 5]: 3.57 mL/min/kg

Structure (SMILES): CC[C@@H](N(NC(=O)c1ccc2c(c1F)B(O)OC2)C(=O)c1cc(C)cc(C)c1)C(C)(C)C [Cpd. No. 59, (R)—N′-(3,5-dimethylbenzoyl)-N′-(2,2-dimethylpentan-3-yl)-7-fluoro-1-hydroxy-1,3-dihydrobenzo[c][1,2]oxaborole-6-carbohydrazide]
- EC50 [1, 3]: 0.108 µM
- AUC0−t [2, 12]: 127700 ng·h/mL
- Tmax [2, 12]: 5 h
- AUC0−t [2, 13]: 300721 ng·h/mL
- Cmax [2, 13]: 18833 ng/mL
- Tmax [2, 13]: 1.8 h
- half-life [2, 13]: 10.0 h
- Cmax [2, 7]: 11200 ng/mL
- half-life [2, 9]: 5.2 h
- Clearance [2, 12]: 1.4 mL/min/kg
- Clearance [2, 13]: 0.538 mL/min/kg

Structure (SMILES): CC[C@@H](N(NC(=O)c1ccc2c(c1F)COB2O)C(=O)c1cc(C)cc(C)c1)C(C)(C)C [Cpd. No. 67, (R)—N′-(3,5-dimethylbenzoyl)-N′-(2,2-dimethylpentan-3-yl)-4-fluoro-1-hydroxy-1,3-dihydrobenzo[c][1,2]oxaborole-5-carbohydrazide]
- EC50 [1, 3]: 0.309 µM
- AUC(0-t) [2, 6]: 24500 ng·h/mL
- Cmax [2, 7]: 3320 ng/mL
- Tmax [2, 8]: 3 h
- half-life [2, 9]: 5.5 h
- Clearance [2, 5]: 6.63 mL/min/kg

Structure (SMILES): [2H]C([2H])([2H])c1cc(C(=O)N(NC(=O)c2ccc3c(c2C)OCCOB3O)[C@@H](CC)C(C)(C)C)cc(C([2H])([2H])[2H])c1 [compound 81]
- EC50 [1, 3]: 0.564 µM

Structure (SMILES): CCOCc1ccc(C(=O)NN(C(=O)c2cc(C)cc(C)c2)[C@H](CC)C(C)(C)C)c(F)c1B(O)O [compound 90, (R)-(3-(2-(3,5-dimethylbenzoyl)-2-(2,2-dimethylpentan-3-yl)hydrazine-1-carbonyl)-6-(ethoxymethyl)-2-fluorophenyl)boronic acid]
- EC50 ([1]; read-out: fLUC assay EC50 Run 1, 24 hours with compound, Run 1): 0.389 µM
- EC50 ([1]; read-out: fLUC assay EC50 Run 2, 24 hours with compound, Run 2): ~0.266 µM
